{"source": "patent US7745636B2", "about": "“Hepatitis C virus inhibitors” (Bristol-Myers Squibb Company, priority 2006, dated 2010)", "data": [{"system": "HCV 1b-377-neo replicon cells", "assay": "HCV Replicon assay, HCV 1b-377-neo replicon cells", "type": "cell-based, HCV 1b genotype", "conditions": "Hepatitis C virus, Table 2, read-out: Range (EC50 against HCV 1b)", "units": {"EC50": "nM"}, "values": [{"smiles": "COC(=O)N[C@H](C(=O)N1CCC[C@H]1c1ncc(-c2ccc(-c3ccc(-c4cnc([C@@H]5CCCN5C(=O)[C@@H](Nc5ncccn5)C(C)C)[nH]4)cc3)cc2)[nH]1)C(C)C", "note": "[cj-11, methyl ((1S)-2-methyl-1-(((2S)-2-(5-(4′-(2-((2S)-1-(N-2-pyrimidinyl-L-valyl)-2-pyrrolidinyl)-1H-imidazol-5-yl)-4-biphenylyl)-1H-imidazol-2-yl)-1-pyrrolidinyl)carbonyl)propyl)carbamate]", "EC50": "0.001 to 0.999"}, {"smiles": "COC(=O)N[C@H](C(=O)N1CCC[C@H]1c1ncc(-c2ccc(-c3ccc(-c4cnc([C@@H]5CCCN5C(=O)[C@@H](NC(=NC#N)N(C)C)C(C)C)[nH]4)cc3)cc2)[nH]1)C(C)C", "note": "[cj-17, methyl ((1S)-1-(((2S)-2-(5-(4′-(2-((2S)-1-(N-(cyano(dimethyl)carbamimidoyl)-L-valyl)-2-pyrrolidinyl)-1H-imidazol-5-yl)-4-biphenylyl)-1H-imidazol-2-yl)-1-pyrrolidinyl)carbonyl)-2-methylpropyl)carbamate]", "EC50": "0.001 to 0.999"}, {"smiles": "COC(=O)N[C@@H](C(=O)N1CCC[C@H]1c1ncc(-c2ccc(-c3ncc(-c4cnc([C@@H]5CCCN5C(=O)[C@@H](c5ccccc5)N5CCCCC5)[nH]4)cn3)cc2)[nH]1)c1ccccc1", "note": "[Example 152l-3, methyl ((1R)-2-oxo-1-phenyl-2-((2S)-2-(4-(4-(5-(2-((2S)-1-((2R)-2-phenyl-2-(1-piperidinyl)acetyl)-2-pyrrolidinyl)-1H-imidazol-5-yl)-2-pyrimidinyl)phenyl)-1H-imidazol-2-yl)-1-pyrrolidinyl)ethyl) carbamate]", "EC50": "0.001 to 0.999"}, {"smiles": "C[C@H](NC(=O)[C@@H](c1ccccc1)N(C)C)c1ncc(-c2cnc(-c3ccc(-c4cnc([C@@H]5CCCN5C(=O)[C@@H](c5ccccc5)N(C)C)[nH]4)cc3)cn2)[nH]1", "note": "[Example 152j-18, (2R)-2-(dimethylamino)-N-((1S)-1-(5-(5-(4-(2-((2S)-1-((2R)-2-(dimethylamino)-2-phenylacetyl)-2-pyrrolidinyl)-1H-imidazol-5-yl)phenyl)-2-pyrazinyl)-1H-imidazol-2-yl)ethyl)-2-phenylacetamide]", "EC50": "0.001 to 0.999"}, {"smiles": "COC(=O)N[C@@H](C(=O)N1CCC[C@H]1c1nc(-c2cnc(-c3ccc(-c4cnc([C@@H]5CCCN5C(=O)[C@H](NC(=O)OC)c5ccccc5)[nH]4)c(F)c3)nc2)c[nH]1)c1ccccc1", "note": "[Example D69, methyl ((1R)-2-((2S)-2-(5-(2-(3-fluoro-4-(2-((2S)-1-((2R)-2-((methoxycarbonyl)amino)-2-phenylacetyl)-2-pyrrolidinyl)-1H-imidazol-5-yl)phenyl)-5-pyrimidinyl)-1H-imidazol-2-yl)-1-pyrrolidinyl)-2-oxo-1-phenylethyl) carbamate]", "EC50": "0.001 to 0.999"}, {"smiles": "COC(=O)N[C@@H](C(=O)N[C@@H](C)c1ncc(-c2ccc(-c3ccc(-c4cnc([C@@H]5CCCN5C(=O)[C@H](NC(=O)OC)c5ccccc5)[nH]4)nn3)cc2)[nH]1)c1ccccc1", "note": "[Example 152j-14, methyl ((1R)-2-((2S)-2-(5-(6-(4-(2-((1S)-1-(((2R)-2-((methoxycarobnyl)amino)-2-phenylace-tyl)amino)eth-yl)-1H-imidazol-5-yl)phenyl)-3-pyridazinyl)-1H-imidazol-2-yl)-1-pyrrolidinyl)-2-oxo-1-phenylethyl)carbamate]", "EC50": "1 to 99"}, {"smiles": "COC(=O)N[C@@H](C(=O)N1CCC[C@H]1c1ncc(-c2ccc(-c3ncc(-c4cnc([C@@H]5CCCN5C(=O)[C@H](NC(=O)OC)c5ccccc5)[nH]4)cn3)cc2)[nH]1)c1ccccc1", "note": "[Example 152j-2, methyl ((1R)-2-((2S)-2-(5-(2-(4-(2-((2S)-1-((2R)-2-((methoxycarbonyl)amino)-2-phenylacetyl)-2-pyrrolidinyl)-1H-imidazol-5-yl)phenyl)-5-pyrimidinyl)-1H-imidazol-2-yl)-1-pyrrolidinyl)-2-oxo-1-phenylethyl)carbamate]", "EC50": "0.001 to 0.999"}, {"smiles": "CN(C)[C@@H](C(=O)N1CCC[C@H]1c1ncc(-c2ccc(-c3ccc(-c4cnc([C@@H]5CCCN5C(=O)[C@@H](c5ccccc5)N(C)C)[nH]4)cc3)cc2)[nH]1)c1ccccc1", "note": "[Example 1, (1R,1′R)-2,2′-(4,4′-biphenyldiylbis(1H-imidazole-5,2-diyl(2S)-2,1-pyrrolidinediyl))bis(N,N-dimethyl-2-oxo-1-phenylethanamine)]", "EC50": "0.001 to 0.999"}, {"smiles": "COC(=O)N[C@@H](C(=O)N1CCC[C@H]1c1ncc(-c2ccc(-c3ccc(-c4cnc([C@@H]5CCCN5C(=O)[C@H](NC(=O)OC)c5ccccc5)[nH]4)cc3C)nc2)[nH]1)c1ccccc1", "note": "[Example 138, methyl((1R)-2-((2S)-2-(5-(6-(4-(2-((2S)-1-((2R)-2-((methoxycarbonyl)amino)-2-phenylacetyl)-2-pyrrolidinyl)-1H-imidazol-5-yl)-2-methylphenyl)-3-pyridinyl)-1H-imidazol-2-yl)-1-pyrrolidinyl)-2-oxo-1-phenylethyl)carbamate]", "EC50": "0.001 to 0.999"}, {"smiles": "COC(=O)N[C@H](C(=O)N1CCC[C@H]1c1ncc(-c2ccc(-c3ccc(-c4cnc([C@@H]5CCCN5C(=O)[C@@H](NC(=O)OC)C(C)C)[nH]4)cc3C(N)=O)cc2)[nH]1)C(C)C", "note": "[Example M118, methyl((1S)-1-(((2S)-2-(5-(2′-carbamoyl-4′-(2-((2S)-1-((2S)-2-((methoxycarbonyl)amino)-3-methylbutanoyl)-2-pyrrolidinyl)-1H-imidazol-5-yl)-4-biphenylyl)-1H-imidazol-2-yl)-1-pyrrolidinyl)carbonyl)-2-methylpropyl)carbamate]", "EC50": "1000 to 10000"}, {"smiles": "COC(=O)N[C@H](C(=O)N1CCC[C@H]1c1ncc(-c2cnc(-c3ccc(-c4[nH]c([C@@H]5CCCN5C(=O)[C@@H](NC(=O)OC)C5CC5)nc4C(F)(F)F)cc3)nc2)[nH]1)C1CC1", "note": "[Example J49, methyl ((1S)-1-cyclopropyl-2-((2S)-2-(5-(4-(5-(2-((2S)-1-((2S)-2-cyclopropyl-2-((methoxycarbonyl)amino)acetyl)-2-pyrrolidinyl)-1H-imidazol-5-yl)-2-pyrimidinyl)phenyl)-4-(trifluoromethyl)-1H-imidazol-2-yl)-1-pyrrolidinyl)-2-oxoethyl)carbamate]", "EC50": "0.001 to 0.999"}, {"smiles": "COC(=O)N[C@@H](C(=O)N1CCC[C@H]1c1ncc(-c2ccc(-c3ccc(-c4cnc([C@@H]5CCCN5C(=O)Cc5cccnc5)[nH]4)cc3C)cc2)[nH]1)c1ccccc1", "note": "[Example 127, methyl ((1R)-2-((2S)-2-(5-(2′-methyl-4′-(2-((2S)-1-(3-pyridinylacetyl)-2-pyrrolidinyl)-1H-imidazol-5-yl)-4-biphenylyl)-1H-imidazol-2-yl)-1-pyrrolidinyl)-2-oxo-1-phenylethyl)carbamate]", "EC50": "0.001 to 0.999"}, {"smiles": "C[C@H](NC(=O)[C@@H](c1ccccc1)N(C)C)c1ncc(-c2ccc(-c3ccc(-c4cnc([C@H](C)NC(=O)[C@@H](c5ccccc5)N(C)C)[nH]4)cn3)cc2)[nH]1", "note": "[Example 152j-24, (2R)-2-(dimethylamino)-N-((1S)-1-(5-(6-(4-(2-((1S)-1-(((2R)-2-(dimethylamino)-2-phenylace-tyl)amino)eth-yl)-1H-imidazol-5-yl)phenyl)-3-pyridinyl)-1H-imidazol-2-yl)ethyl)-2-phenylacetamide]", "EC50": "0.001 to 0.999"}]}, {"system": "HCV 1b-377-neo replicon cells", "assay": "HCV Replicon assay, HCV 1b-377-neo replicon cells", "type": "cell-based, HCV 1b genotype", "conditions": "Table 2, listed as 151 isomer 1, read-out: Range (EC50 against HCV 1b)", "units": {"EC50": "nM"}, "values": [{"smiles": "CN(C)[C@@H](C(=O)N1CCC[C@H]1c1nc(-c2ccc(-c3ccc(-c4cn(C)c([C@@H]5CCCN5C(=O)[C@@H](c5ccccc5)N(C)C)n4)cc3)cc2)cn1C)c1ccccc1", "note": "(single isomer, unassigned) [Example 151 isomer 1]", "EC50": "1 to 99"}]}]}
